Reference: ChEMBL document CHEMBL4823263, “Discovery of 2-(3-(3-Carbamoylpiperidin-1-yl)phenoxy)acetic Acid Derivatives as Novel Small-Molecule Inhibitors of the β-Catenin/B-Cell Lymphoma 9 Protein-Protein Interaction” (J Med Chem, 2021)
Activity calls are given as the source filed them. The rule behind the calls is not given here.

Tests used:
[1] = target: Protein Wnt-3a (Mus musculus) (UniProt P27467); assay: Inhibition of mouse wnt3a expressed in human MDA-MB-231 cells assessed as cyclin D1 level at 30 uM incubated for […] by quantitative real-time PCR analysis relative to control; format: cell-based; design: scale not given: the % may be the effect or the level left
Protein Wnt-3a (Mus musculus), sequence (P27467 whole entry): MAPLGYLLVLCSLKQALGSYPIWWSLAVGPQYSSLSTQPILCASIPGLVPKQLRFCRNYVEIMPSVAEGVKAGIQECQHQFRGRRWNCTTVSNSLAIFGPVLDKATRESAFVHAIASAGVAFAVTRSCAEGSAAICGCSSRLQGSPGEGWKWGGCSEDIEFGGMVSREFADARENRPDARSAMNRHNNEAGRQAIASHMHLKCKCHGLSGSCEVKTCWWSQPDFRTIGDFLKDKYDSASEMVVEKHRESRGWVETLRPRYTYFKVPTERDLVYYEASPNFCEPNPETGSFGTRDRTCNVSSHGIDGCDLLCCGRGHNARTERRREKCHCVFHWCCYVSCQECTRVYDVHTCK

[2] = test system: SW480; assay: Antiproliferative activity against human SW480 cells harboring empty pcDNA3.1 vector incubated for 72 hrs by MTS assay; format: functional, cell-based; conditions: SW480, 72 h
[3] = target: Protein Wnt-3a (Homo sapiens) (UniProt P56704); assay: Inhibition of Wnt3a in human SW480 cells assessed as Axin2 level at 10 uM incubated for […] by quantitative real-time PCR analysis relative to control; format: cell-based; design: scale not given: the % may be the effect or the level left
Protein Wnt-3a (Homo sapiens), sequence (P56704 whole entry): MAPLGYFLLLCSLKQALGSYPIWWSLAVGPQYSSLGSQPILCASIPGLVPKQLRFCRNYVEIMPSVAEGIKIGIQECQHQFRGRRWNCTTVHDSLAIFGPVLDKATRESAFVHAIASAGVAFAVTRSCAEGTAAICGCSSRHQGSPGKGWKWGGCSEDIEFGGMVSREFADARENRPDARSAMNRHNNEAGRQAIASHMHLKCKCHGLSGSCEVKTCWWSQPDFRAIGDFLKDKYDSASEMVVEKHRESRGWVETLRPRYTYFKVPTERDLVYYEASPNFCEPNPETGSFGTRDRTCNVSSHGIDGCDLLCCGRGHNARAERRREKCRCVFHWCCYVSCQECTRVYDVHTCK

[4] = target: Protein Wnt-3a (Homo sapiens) (UniProt P56704); assay: Inhibition of Wnt3a in human SW480 cells assessed as cyclin D1 level at 3.3 uM incubated for […] by quantitative real-time PCR analysis relative to control; format: cell-based; design: scale not given: the % may be the effect or the level left
[5] = target: T1, Cadherin-1 (Homo sapiens) (UniProt P12830); assay: Disruption of full length beta-catenin/E-cadherin interaction in human HCT116 cells incubated for 24 hrs by co-immunoprecipitation assay; format: cell-based; conditions: HCT-116
T1 sequence (whole entry): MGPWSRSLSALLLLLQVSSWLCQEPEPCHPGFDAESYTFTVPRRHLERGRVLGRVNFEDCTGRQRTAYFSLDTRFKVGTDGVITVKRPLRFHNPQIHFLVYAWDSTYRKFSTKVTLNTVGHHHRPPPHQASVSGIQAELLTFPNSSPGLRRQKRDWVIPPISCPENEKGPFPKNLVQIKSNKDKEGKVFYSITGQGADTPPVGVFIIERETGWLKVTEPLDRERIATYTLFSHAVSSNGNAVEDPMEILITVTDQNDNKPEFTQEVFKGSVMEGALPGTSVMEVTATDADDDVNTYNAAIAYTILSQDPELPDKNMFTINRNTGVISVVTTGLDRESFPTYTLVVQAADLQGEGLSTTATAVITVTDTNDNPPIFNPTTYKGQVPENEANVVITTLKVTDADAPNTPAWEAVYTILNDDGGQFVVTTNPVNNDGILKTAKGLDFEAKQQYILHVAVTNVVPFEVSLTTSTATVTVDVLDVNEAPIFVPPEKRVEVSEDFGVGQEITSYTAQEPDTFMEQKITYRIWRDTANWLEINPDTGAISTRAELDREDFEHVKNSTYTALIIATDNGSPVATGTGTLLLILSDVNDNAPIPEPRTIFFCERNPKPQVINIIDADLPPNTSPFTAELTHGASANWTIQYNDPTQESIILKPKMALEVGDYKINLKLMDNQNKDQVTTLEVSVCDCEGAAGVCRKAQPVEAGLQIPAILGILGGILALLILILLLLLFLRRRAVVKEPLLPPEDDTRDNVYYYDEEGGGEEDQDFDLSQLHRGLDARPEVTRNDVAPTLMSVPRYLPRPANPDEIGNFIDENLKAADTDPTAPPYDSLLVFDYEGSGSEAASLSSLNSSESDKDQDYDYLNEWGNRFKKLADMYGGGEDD

[6] = target: Protein Wnt-3a (Homo sapiens) (UniProt P56704); assay: Inhibition of Wnt3a in human SW480 cells assessed as cyclin D1 level at 10 uM incubated for […] by quantitative real-time PCR analysis relative to control; format: cell-based; design: scale not given: the % may be the effect or the level left
[7] = target: Protein Wnt-3a (Homo sapiens) (UniProt P56704); assay: Inhibition of Wnt3a in human SW480 cells assessed as Axin2 level at 3.3 uM incubated for […] by quantitative real-time PCR analysis relative to control; format: cell-based; design: scale not given: the % may be the effect or the level left
[8] = target: Protein Wnt-3a (Mus musculus) (UniProt P27467); assay: Inhibition of mouse wnt3a expressed in human MDA-MB-231 cells assessed as LEF1 level at 10 uM incubated for […] by quantitative real-time PCR analysis relative to control; format: cell-based; design: scale not given: the % may be the effect or the level left
[9] = (§1) Inhibition of Wnt/beta-catenin transactivation signalling in human SW480 cells harboring wild type tcf4 binding sites incubated for 24 hrs by TOPFlash luciferase assay; format: cell-based
[10] = test system: SW480; assay: as §1; format: cell-based
[11] = target: Protein Wnt-3a (Homo sapiens) (UniProt P56704); assay: Inhibition of Wnt3a in human SW480 cells assessed as cyclin D1 level at 30 uM incubated for […] by quantitative real-time PCR analysis relative to control; format: cell-based; design: scale not given: the % may be the effect or the level left
[12] = target: Protein Wnt-3a (Mus musculus) (UniProt P27467); assay: Inhibition of mouse wnt3a expressed in human MDA-MB-231 cells assessed as cyclin D1 level at 3.3 uM incubated for […] by quantitative real-time PCR analysis relative to control; format: cell-based; design: scale not given: the % may be the effect or the level left
[13] = target: Protein Wnt-3a (Mus musculus) (UniProt P27467); assay: Inhibition of mouse wnt3a expressed in human MDA-MB-231 cells assessed as cyclin D1 level at 10 uM incubated for […] by quantitative real-time PCR analysis relative to control; format: cell-based; design: scale not given: the % may be the effect or the level left
[14] = test system: SW480; assay: Inhibition of Wnt/beta-catenin transactivation signalling in human SW480 cells harboring mutant tcf4 binding sites assessed as relative activity at 3.125 uM incubated for 24 hrs by FOPFlash luciferase assay relative to control; format: cell-based; design: scale not given: the % may be the effect or the level left
[15] = target: Protein Wnt-3a (Homo sapiens) (UniProt P56704); assay: Inhibition of Wnt3a in human SW480 cells assessed as Axin2 level at 30 uM incubated for […] by quantitative real-time PCR analysis relative to control; format: cell-based; design: scale not given: the % may be the effect or the level left
[16] = target: Protein Wnt-3a (Mus musculus) (UniProt P27467); assay: Inhibition of mouse wnt3a expressed in human MDA-MB-231 cells assessed as Axin2 level at 30 uM incubated for […] by quantitative real-time PCR analysis relative to control; format: cell-based; design: scale not given: the % may be the effect or the level left
[17] = Downregulation of HPRT level in human SW480 cells at 10 uM incubated for […] by quantitative real-time PCR analysis relative to control; format: ADME, cell-based; conditions: sw480, 10 µM
[18] = target: Protein Wnt-3a (Mus musculus) (UniProt P27467); assay: Inhibition of mouse wnt3a expressed in human MDA-MB-231 cells assessed as Axin2 level at 10 uM incubated for […] by quantitative real-time PCR analysis relative to control; format: cell-based; design: scale not given: the % may be the effect or the level left
[19] = Downregulation of HPRT level in human SW480 cells at 3.3 uM incubated for […] by quantitative real-time PCR analysis relative to control; format: ADME, cell-based; conditions: sw480, 3.3 µM
[20] = target: Protein Wnt-3a (Mus musculus) (UniProt P27467); assay: Inhibition of mouse wnt3a expressed in human MDA-MB-231 cells assessed as HPRT level at 30 uM incubated for […] by quantitative real-time PCR analysis relative to control; format: cell-based; design: scale not given: the % may be the effect or the level left
[21] = test system: MDA-MB-231; assay: Antiproliferative activity against human MDA-MB-231 cells incubated for 72 hrs by MTS assay; format: functional, cell-based; conditions: MDA-MB-231, 72 h
[22] = target: Protein Wnt-3a (Mus musculus) (UniProt P27467); assay: Inhibition of mouse wnt3a expressed in human MDA-MB-231 cells assessed as LEF1 level at 30 uM incubated for […] by quantitative real-time PCR analysis relative to control; format: cell-based; design: scale not given: the % may be the effect or the level left
[23] = test system: MDA-MB-468; assay: Antiproliferative activity against human MDA-MB-468 cells incubated for 72 hrs by MTS assay; format: functional, cell-based; conditions: MDA-MB-468, 72 h
[24] = target: Protein Wnt-3a (Mus musculus) (UniProt P27467); assay: Inhibition of mouse wnt3a expressed in human MDA-MB-231 cells assessed as LEF1 level at 3.3 uM incubated for […] by quantitative real-time PCR analysis relative to control; format: cell-based; design: scale not given: the % may be the effect or the level left
[25] = target: beta-catenin-B-cell lymphoma 9 protein complex (Homo sapiens) (UniProt P35222+O00512); assay: Disruption of full length beta-catenin/BCL9 interaction in human HCT116 cells incubated for 24 hrs by co-immunoprecipitation assay; format: cell-based; conditions: HCT-116
[26] = target: Protein Wnt-3a (Homo sapiens) (UniProt P56704); assay: Inhibition of Wnt3a in human SW480 cells assessed as LEF1 level at 10 uM incubated for […] by quantitative real-time PCR analysis relative to control; format: cell-based; design: scale not given: the % may be the effect or the level left

SMILES: CC(C)(Oc1cccc(N2CCC[C@H](C(=O)N(Cc3ccc(-c4cccs4)cc3)C3CC3)C2)c1)C(=O)NS(=O)(=O)c1ccc(C#N)cc1
- Activity [1]: 66%
- IC50 [2]: 19 µM
- Activity [3]: 72%
- Activity [4]: 53%
- Activity [5]: inactive
- Activity [6]: 40%
- Activity [7]: 99%
- Activity [8]: 81%
- IC50 [9]: 6.6 µM
- Activity [10]: Dose-Dependent Effect
- Activity [11]: 31%
- Activity [12]: 94%
- Activity [13]: 77%
- Activity [14]: 99%
- Activity [15]: 42%
- Activity [16]: 50%
- Activity [17]: 102%
- Activity [18]: 57%
- Activity [19]: 98%
- Activity [20]: 99%
- IC50 [21]: 14.3 µM
- Activity [22]: 76%
- IC50 [23]: 17.8 µM
- Activity [24]: 87%
- Activity [25]: Dose-Dependent Effect
- Activity [26]: 77%
